Measured values taken from patent US20250325469A1, “Inhibitors of atp synthase - cosmetic and therapeutic uses” (priority 2021, published 2025).
Where two headings read alike, the source gives them in different places.

Experiments:
[1] = cited from earlier work
[2] = cited from earlier work; remark: listed apart in the source
[3] = rats, radioactively labelled [151]; cited from earlier work
ROS (superoxide) = test: MitoSOX ROS (superoxide) signal in cultured cortical neurons of H+/T+ mice; format: cell-based, mouse; details: H+/T+ vs wild-type mitochondria, corrected for MitoSOX accumulation
Description: (FIG. 6B) Experiments with cortical neurons in culture, after being cultured for 9-10 days, after being extracted from mouse embryos. […] As in FIG. 6A. But this time in cultured cortical neurons from the mice (embryos), wherein the mitochondria of H+/T+ mice have a more hyperpolarized ΨIM (accumulate more TMRM^+) than wild-type. But, as in FIG. 6A, have a more depolarized ΨIM upon FCCP/respiratory chain inhibitor (antimycin A/rotenone) administration. A typical value for ΨIM in normal mitochondria is −140 mV and if we equate the 5 a.u. value for wild-type in the 2nd panel with −140 mV, then the 6 a.u. value of H+/T+here in the 2nd panel is −168 mV. This ΨIM disparity means that H+/T+ mitochondria accumulates more MitoSOX ROS (superoxide) reporting compound in their mitochondrial matrix, wherein this disparity can be calculated using the equation presented earlier, and this disparity is shown here, in the 3rd panel. With this MitoSOX accumulation disparity, one would expect a greater MitoSOX signal from H+/T+ mitochondria, to wild-type mitochondria, in the proportion shown in the 3rd panel. But what is actually experimentally observed is in the 4th panel. Thence H+/T+ mitochondria must produce 66% less ROS (superoxide) than wild-type, which fits with their lower oxidative respiration rate observed in (FIG. 6A). […]

F1F0 ATP hydrolysis [4] = target: T1, F1F0 ATP hydrolysis (Mus musculus, UniProt P56480+Q03265); details: brain mitochondria of H+/T+ vs wild-type mice [130]; cited from earlier work
T1 construct: F1F0 ATP hydrolysis is 35% less in brain mitochondria isolated from H+/T+ than wild-type mice; from tissue; host or cells: mitochondria isolated from brain of wild-type and H+/T+ double transgenic mice

[5] = system: oxidative phosphorylation; details: State 3 respiration, H+/T+ vs wild-type [130]; cited from earlier work
F1F0 ATP hydrolysis [6] = target: T1, F1F0 ATP hydrolysis; details: cited from earlier work
[7] = system: oxidative phosphorylation; details: cited from earlier work
[8] = mouse, in vivo; cited from earlier work
F1F0 ATP hydrolysis [9] = target: T1, F1F0 ATP hydrolysis; details: colon mitochondria, I/T Tet-on mice [136]; cited from earlier work
[10] = system: oxidative phosphorylation; details: colon mitochondria, I/T Tet-on mice [136]; cited from earlier work

C=CCNc1nc(NCC=C)nc(N2CCN(C(c3ccc(F)cc3)c3ccc(F)cc3)CC2)n1 [almitrine]
mean plasma concentration of almitrine ([1]; 8 μg/kg/min for 20 minutes, during infusion): 325 ng/mL
highest observed plasma almitrine concentration ([1]; 16 μg/kg/min for 1 hour [177]): ~1,600 ng/ml
plasma almitrine concentration, all subjects but one ([1]; 16 μg/kg/min for 1 hour, 2 hours after the infusion stopped [177]): below 400 ng/ml
plasma almitrine concentration, all subjects ([1]; 16 μg/kg/min for 1 hour, by 12 hours [177]): below 200 ng/ml
plasma almitrine concentration, all subjects ([1]; 16 μg/kg/min for 1 hour, during infusion [177]): greater than 600 ng/ml
mean plasma concentration of almitrine ([1]; 16 μg/kg/min, 20 minutes into the infusion): 659 ng/mL
adverse side-effect ([2]; 8.3 μg/kg/min for 30 minutes [176]): no adverse side-effect was observed
plasma lactate concentrations ([2]; 16 μg/kg/min infusion): remained within the normal range in all patients
deleterious effects ([2]; 16.7 ug/kg/min for 1 hour): without deleterious effects
tissue accumulation [3]: especially accumulated in the lungs

B1: human H49K IF1 protein: mutant human IF1 protein with a H49K substitution, expressed as transgene in mice (protein, UniProt Q9UII2 26-106, looked up, variant H49K)
ATPase inhibitor, …: GSDQSENVDRGAGSIREAGGAFGKREQAEEERYFRAQSREQLAALKKHKEEEIVHHKKEIERLQKEIERHKQKIKMLKHDD
modifications: expressed as transgene in mice
less ROS (superoxide) produced (ROS (superoxide)): 66%
reduction of F1F0 ATP hydrolysis capability (F1F0 ATP hydrolysis [4]): 35%
less O2 consumption [5]: ~60%
inhibition of F1F0 ATP hydrolysis capability (F1F0 ATP hydrolysis [6]; Tet-off mice [135]): 25%
inhibition of F1F0 ATP hydrolysis capability (F1F0 ATP hydrolysis [6]; Tet-on mice [135]): 40%
decrease of State 3 respiration rate ([7]; Tet-off mice [135]): 37%
decrease of State 3 respiration rate ([7]; Tet-on mice [135]): 44%
weight, life span and cage behavior [8]: no differences in weight, life span and cage behavior when compared to controls after one year of follow up

B2: human IF1 protein: Non-mutant human IF1 protein expressed as transgene in mouse intestine cells (protein, UniProt Q9UII2 26-106, looked up)
ATPase inhibitor, …: GSDQSENVDRGAGSIREAGGAFGKREQAEEERYFRAQSREQLAALKKHHEEEIVHHKKEIERLQKEIERHKQKIKMLKHDD
inhibition of F1F0 ATP hydrolysis capability (F1F0 ATP hydrolysis [9]): 35%
decrease of oligomycin sensitive respiration rate [10]: 60%
